In brackets after ≈: the same amount, converted by molar mass.
Assays:
[1] = NO˙ radical scavenging assay (Griess reaction); conditions: PBS pH 7.4, sodium nitroprusside
Method: The scavenging of the NO˙ radical was performed by applying previously reported protocols. The in vitro protocol describes the decomposition of sodium nitroprusside in phosphate buffered saline (PBS) at pH = 7.4. The NO˙ radicals would be involved in a Griess reaction if they were not captured by the tested compounds. This reaction results from the formation of an azo dye, with maximum absorption at 546 nm. This azo dye is formed from sulfanilic acid and naphthyl ethylenediamine dichloride.

[2] = ABTS˙+ radical scavenging assay
Method: (§1) The stock solutions (1 mg/mL) of the tested compounds and the controls were obtained, by dissolving the substances in dimethyl sulfoxide (DMSO). Using Jasco V-530, an UV-VIS spectrophotometer (Jasco International Co., Ltd., Tokyo, Japan), we performed the colorimetric determinations in low-volume single-use 10 mm width cuvettes.
(§2) The assays were performed in triplicate and the results are presented as averages for each assay.

[3] = DPPH˙ radical scavenging assay
Method: as §1, §2
The DPPH˙ radical scavenging assay is based on the transfer of one hydrogen from the analyzed compound to the violet stable free radical DPPH˙ (2,2-diphenyl-1-picrylhydrazyl), as we convert it into a yellow compound. The absorbance of the reagent mixed with samples presented inversely proportional values to the amount of DPPH˙ neutralized. The absorbance of the reagent was measured at λ = 517 nm, according to our previous reports. The assay was made in the presence of various concentrations of samples. The used protocol is based on the report of Brand-Williams et al..

[4] = test system: A549 (lung adenocarcinoma) cells; test: Cytotoxicity, Alamar blue assay, A549 cells; assay type: cell-based; conditions: Homo sapiens, 24 h exposure
From the text: (§3) Normal human foreskin (BJ) fibroblasts and two types of cancer cells, namely A549 (lung adenocarcinoma) and LNCaP (prostate carcinoma) purchased from American Type Culture Collection (Manassas, VA, USA), were used in the experiments. Each cell line was maintained in a different culture medium, depending on the metabolic necessities of the cells. BJ cells were maintained in Dulbecco’s modified Eagle’s medium (DMEM) with low glucose. A549 cells were maintained in DMEM with high glucose […], while LNCaP cells were grown in Roswell Park Memorial Institute (RPMI) 1640 medium with high glucose (5 g/L). All media used were supplemented with 10% fetal bovine serum (FBS) and were refreshed every two days. Cells were used in experiments or subcultured when they reached 70–80% confluence.
(§4) In 100 µL in 96-well plates, a number of 30,000 LNCaP cells, 15,000 A549 cells, and 7500 normal (BJ) cells were seeded. Because the cells have different sizes and volumes, the purpose of the different seedings was to achieve a confluency of 70–80% after 24 h. All types of cells were further exposed to the synthesized compounds (5a–d and 6a–d) for 24 h, at a concentration ranging from 12.5 to 100 µg/mL. Post-exposure, the media were removed, and the cells were washed with phosphate buffer saline (PBS). Their viability was evaluated using Alamar blue (AB) assay as previously described. Briefly, the cells were incubated with a 200 µM resazurin solution for 4 h. Using a Synergy 2 multi-mode microplate reader, we measured the fluorescence. The measurement was performed at λexcitation = 530/25 nm; λemission = 590/35 nm. We conducted the experiments using three biological replicates, each one including 6 technical replicates. As negative controls (NC), cells exposed to culture medium containing 0.2% DMSO were used. Compared to the NC (100%), the results were expressed as relative values. We used IC50 values for the potency evaluation, and calculated them for each cell line, using the dose-effect curves obtained by fitting the experimental data with a 4-parameter logistic curve.
(§5) Mean values ± standard deviation (SD) values of at least three biological replicates were used to calculate experimental data. One-way analysis of variance (ANOVA) with a post hoc Holm–Sidak test was used to statistically examine the data. Using SigmaPlot 11.0 software (Systat, Software Inc., Chicago, IL, USA), we performed the graphical display and data analysis. From a statistical point of view, the results were considered different, at values of p < 0.05.

[5] = test system: LNCaP (prostate carcinoma) cells; test: Cytotoxicity, Alamar blue assay, LNCaP cells; assay type: cell-based; conditions: Homo sapiens, 24 h exposure
From the text: as §3, §4, §5

[6] = test system: normal human foreskin fibroblasts (BJ); test: Cytotoxicity, Alamar blue assay, BJ cells; assay type: cell-based; conditions: Homo sapiens, Fibroblast; 24 h exposure, Alamar blue
From the text: as §3, §4, §5

[7] = Fe^2+ chelation assay (ferrozine competition)
Method: In the protocol used for evaluating the Fe^2+ chelating ability of the compounds, the absorbances of the solutions were determined at λ = 562 nm, against a blank sample. The method was adapted from the initial report of Benzie and Strain et al., which was previously reported by our group. Using Equation (5), we calculated the iron chelation capacities of the 5a–d and 6a–d compounds:(5) iron chelation (%)=control absorbance−sample absorbance/control absorbance×100
The chelating capacity of the tested compounds of Fe^2+ was evaluated based on their competition for Fe^2+ with ferrozine.

[8] = Cu^2+ chelation assay (murexide competition)
From the text: With murexide as a chromophoric chelator, we performed the protocol followed for the evaluation of Cu^2+ chelating activities of the compounds using an adaptation of the method presented by Cesari et al. and Wu et al.. Using Equation (6), we calculated the copper chelation capacities of the 5a–d and 6a–d compounds:(6) copper chelation (%)=(A485/A520)control−(A485/A520)sample/(A485/A520)control×100
The evaluation of the Cu^2+ chelation activity of compounds was made based on the competition for Cu^2+ with murexide. The chelating activity of compounds for the cupric ions found in the current assay is significant for the pyrogallol derivatives, being quite close to EDTA-Na2.

| SMILES | IC50 [2] [µM] | % of ABTS˙^+ Scavenging ([2]; 0.83 µg/mL) [%] | % of ABTS˙^+ Scavenging ([2]; 1.67 µg/mL) [%] | % of ABTS˙^+ Scavenging ([2]; 3.33 µg/mL) [%] | % of ABTS˙^+ Scavenging ([2]; 4.99 µg/mL) | % of ABTS˙^+ Scavenging ([2]; 6.66 µg/mL) | % of ABTS˙^+ Scavenging ([2]; 9.99 µg/mL) | % of ABTS˙^+ Scavenging ([2]; 13.32 µg/mL) | IC50 [3] [µM] | IC50 (DPPH˙ scavenging) [3] [µg/mL] | % of DPPH˙ Scavenging ([3]; 1.25 µg/mL) [%] | % of DPPH˙ Scavenging ([3]; 2.5 µg/mL) [%] | % of DPPH˙ Scavenging ([3]; 3.75 µg/mL) [%] | % of DPPH˙ Scavenging ([3]; 5 µg/mL) [%] | % of DPPH˙ Scavenging ([3]; 7.5 µg/mL) [%] | % of DPPH˙ Scavenging ([3]; 10 µg/mL) [%] | % of DPPH˙ Scavenging ([3]; 12.5 µg/mL) | % of DPPH˙ Scavenging ([3]; 15 µg/mL) | also measured |
| --- | --- | --- | --- | --- | --- | --- | --- | --- | --- | --- | --- | --- | --- | --- | --- | --- | --- | --- | --- |
| O=C(O)c1cc(O)ccc1O [Gentisic acid, reference compound] |  |  |  |  |  |  |  |  |  |  |  |  |  |  |  |  |  |  | % of NO˙ Scavenged [1]: 48.14% |
| Cc1c(C)c2c(c(C)c1O)CCC(C)(C(=O)O)O2 (stereo not shown) [Trolox, reference compound] | 18.6 | 38.66 | 53.16 | 66.54 | 94.57% | + (+ represents more than 95%) | + (+ represents more than 95%) | + (+ represents more than 95%) | 18.7 | 4.68 (≈ 18.7 µM) | 17.01 | 28.53 | 40.42 | 53.87 | 75.85 | 94.85 | + (+ represents more than 95%) | + (+ represents more than 95%) |  |
| COc1cccc2c1C(=O)c1c(O)c3c(c(O)c1C2=O)C[C@@](O)(C(=O)CO)C[C@@H]3O[C@H]1C[C@H](N)[C@H](O)[C@H](C)O1 [Doxorubicin, reference compound] |  |  |  |  |  |  |  |  |  |  |  |  |  |  |  |  |  |  | IC50 [4]: 0.54 µg/mL; IC50 [5]: 0.74 µg/mL; IC50 [6]: > 7.5 µg/mL |
| O=C1O[C@H]([C@@H](O)CO)C(O)=C1O [Ascorbic acid, reference compound] | 11.4 | 60.97 | 73.24 | 87.73 | + (+ represents more than 95%) | + (+ represents more than 95%) | + (+ represents more than 95%) | + (+ represents more than 95%) | 16.1 | 2.83 (≈ 16.1 µM) | 35.11 | 47.45 | 55.71 | 64.21 | 79.16 | 94.39 | + (+ represents more than 95%) | + (+ represents more than 95%) |  |
| O=C([O-])CN(CCN(CC(=O)[O-])CC(=O)O)CC(=O)O.[Na+].[Na+] [EDTA-Na2, reference compound] |  |  |  |  |  |  |  |  |  |  |  |  |  |  |  |  |  |  | Ferrous ions Chelation Capacity (%) ([7]; 17.70 µg/mL): 1.32%; Ferrous ions Chelation Capacity (%) ([7]; 20.59 µg/mL): 20.59%; Ferrous ions Chelation Capacity (%) ([7]; 29.41 µg/mL): 42.89%; Ferrous ions Chelation Capacity (%) ([7]; 44.11 µg/mL): 95.10%; Ferrous ions Chelation Capacity (%) ([7]; 58.82 µg/mL): + (+ represents more than 95%); Ferrous ions Chelation Capacity (%) ([7]; 88.23 µg/mL): + (+ represents more than 95%); Ferrous ions Chelation Capacity (%) ([7]; 117.64 µg/mL): + (+ represents more than 95%); Ferrous ions Chelation Capacity (%) ([7]; 257.46 µg/mL): + (+ represents more than 95%); Ferrous ions Chelation Capacity (%) ([7]; 343.28 µg/mL): + (+ represents more than 95%); Cupric ions Chelation Capacity (%) ([8]; 3.36 µg/mL): 10.39%; Cupric ions Chelation Capacity (%) ([8]; 8.40 µg/mL): 22.68%; Cupric ions Chelation Capacity (%) ([8]; 16.80 µg/mL): 44.51% |

From article PMC9867241, “Antioxidant and Cytotoxic Activity of New Polyphenolic Derivatives of Quinazolin-4(3H)-one: Synthesis and In Vitro Activities Evaluation” (Pharmaceutics, 2022)
